The values that follow come from paper PMC9883482, “TPX2 enhances the transcription factor activation of PXR and enhances the resistance of hepatocellular carcinoma cells to antitumor drugs” (Cell Death & Disease, 2023).

Data set [1] deals with MHCC97-L cells. Nature of the data set: MTT cell survival examination. Format: cell-based. The following applies: Homo sapiens, MHCC97L, 48 h, median (95% CI). On the procedure: (§1) In the process of dissolving these pure drug powders, stirring, vortexing, and ultrasonic vibration were used to assist dissolution [17, 18]. After a drug was fully dissolved, Dulbecco’s modified Eagle’s medium (DMEM) without fetal bovine serum (FBS) was used to dilute the drug dissolved in DMSO. For doxorubicin, we used DMEM without FBS to dissolve the drug. When performing cell viability experiments (tetrazolium [MTT] assays), these drugs were diluted.
(§2) The antitumor activity of antitumor drugs injuring HCC cells was examined by using MTT assay. After culturing the HCC cells, transfection experiments were performed, and the cells were then seeded in 96-well cell culture plates (about 8000 cells per well). […] After the cells were treated with the drug for about 48 h, a dose of […] tetrazolium (MTT) reagent was added, and cells with the MTT reagent were incubated for 5 to 6 h. After incubation with the MTT was complete, all liquid in the 96-well cell culture plate was discarded, and about 100 μl of DMSO was added to each well to dissolve the cell samples. During the process of lysing the cell samples, the cell culture plate was shaken for 15 minutes to completely lyse the cells. After the lysis step was complete, the cell culture plate was centrifuged at 12,000 rpm at 4 °C, and the supernatant was collected for evaluation.
(§3) All statistical analyses in the presence work were performed using the GraphPad 8.0 (GraphPad Software Corporation, Armonk, NY, USA). […] For the survival analysis data, the survival curves were analyzed by the log-rank (Mantel–Cox) test to detect the P-value of the survival curve, the median survival time, and the 95% confidence interval (CI). For the co-relationship analysis, the data were analyzed by linear regression to determine the overall trend of a group of data points. […] If the slope was positive, the horizontal coordinate was positively related to the vertical coordinate, and if the slope was negative, the horizontal coordinate was negatively related to the vertical coordinate. For the multi-grouped data, the ordinary one-way analysis of variance (ANOVA) and multiple comparison methods were used. An ANOVA was used to examine whether any difference between groups could be detected. The multiple comparisons (t-test) was used to detect differences between pairs of data.

Data set [2] has as its system MHCC97-H cells. Put plainly: MTT cell survival examination. It is filed as cell-based. The conditions noted are these: Homo sapiens, MHCC97H, 48 h. On the procedure: as §1, §2, §3
In data set [3] the test system is HepG2 cells. Put plainly: MTT cell survival examination. It is filed as cell-based. The conditions noted are these: Homo sapiens, HepG2, 48 h. On the procedure:
as §1, §2, §3

The test system of data set [4] is cyp3a4 and mdr-1 mRNA (PXR downstream genes). The conditions noted are these: human.
Data set [5] has as its target T1, PXR (Homo sapiens, UniProt O75469).
T1 sequence (O75469 1-434): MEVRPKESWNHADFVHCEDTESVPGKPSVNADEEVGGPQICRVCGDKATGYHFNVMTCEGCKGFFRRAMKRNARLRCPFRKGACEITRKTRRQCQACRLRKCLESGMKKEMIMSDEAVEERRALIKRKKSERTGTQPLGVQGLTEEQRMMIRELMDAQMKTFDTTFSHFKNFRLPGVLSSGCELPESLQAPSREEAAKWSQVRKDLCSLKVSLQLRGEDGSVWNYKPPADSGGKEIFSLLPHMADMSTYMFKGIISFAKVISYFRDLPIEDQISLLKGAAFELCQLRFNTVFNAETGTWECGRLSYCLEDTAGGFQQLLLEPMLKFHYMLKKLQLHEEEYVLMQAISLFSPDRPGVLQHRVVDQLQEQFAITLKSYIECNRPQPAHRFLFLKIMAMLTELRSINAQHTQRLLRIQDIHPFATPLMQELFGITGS
The following applies: in combination with rifampicin.

[6] abbreviates: HepG2, Control, median (95% CI).
The mark [7] stands for this setting: HepG2, TPX2 overexpression, median (95% CI).

Usually IC50 stands for the concentration that inhibits the measured activity by half. The low end stands for higher potency, the high end for lower potency. In the case of `COc1cc2nccc(Oc3ccc(NC(=O)C4(C(=O)Nc5ccc(F)cc5)CC4)cc3)c2cc1OC` [cabozantinib], the IC50 in data set [1] (Control) stood at 1470 nM; in data set [1] (TPX2 overexpression), 5030 nM; in data set [2] (Control, median (95% CI)) it was 760 nM; in data set [2] (siTPX2, median (95% CI)) it was 260 nM; in data set [3] (setting [6]), 880 nM; in data set [3] (setting [7]) it was 4780 nM. Besides, the midpoint of inhibition in data set [3] (HepG2, siTPX2, median (95% CI)), the IC50, lay at 390 nM.

Turning to `COc1cccc2c1C(=O)c1c(O)c3c(c(O)c1C2=O)C[C@@](O)(C(=O)CO)C[C@@H]3O[C@H]1C[C@H](N)[C@H](O)[C@H](C)O1` [doxorubicin], the IC50 in data set [1] (Control) is 250 nM; in data set [1] (TPX2 overexpression), 820 nM; in data set [2] (Control, median (95% CI)), 200 nM; in data set [2] (siTPX2, median (95% CI)), 60 nM; in data set [3] (setting [6]), 330 nM; in data set [3] (setting [7]), 1590 nM. Also, the half-maximal inhibitory concentration (IC50) in data set [3] (HepG2, siTPX2, median (95% CI)) stood at 50 nM.

Take `COc1cc([C@@H]2c3cc4c(cc3[C@@H](O[C@@H]3O[C@@H]5CO[C@@H](C)O[C@H]5[C@H](O)[C@H]3O)[C@H]3COC(=O)[C@H]23)OCO4)cc(OC)c1O` [etoposide]: the IC50 was determined as 380 nM in data set [1] (Control); 1320 nM in data set [1] (TPX2 overexpression); 250 nM in data set [2] (Control, median (95% CI)); 100 nM in data set [2] (siTPX2, median (95% CI)); 460 nM in data set [3] (setting [6]); 1930 nM in data set [3] (setting [7]). This compound displayed a 50% inhibitory concentration (IC50) in data set [3] (HepG2, siTPX2, median (95% CI)) of 180 nM.

As to `CCc1c2c(nc3ccc(OC(=O)N4CCC(N5CCCCC5)CC4)cc13)-c1cc3c(c(=O)n1C2)COC(=O)[C@]3(O)CC` [irinotecan], the IC50 in data set [1] (Control) was 430 nM; in data set [1] (TPX2 overexpression), 970 nM; in data set [2] (Control, median (95% CI)) it was 520 nM; in data set [2] (siTPX2, median (95% CI)) it was 160 nM; in data set [3] (setting [6]), 300 nM; in data set [3] (setting [7]) it was 820 nM. This compound had an IC50 in data set [3] (HepG2, siTPX2, median (95% CI)) of 100 nM.

In the case of `CC(=O)N1CCN(c2ccc(OCC3COC(Cn4ccnc4)(c4ccc(Cl)cc4Cl)O3)cc2)CC1` (stereo not drawn) [ketoconazole], the “effect on rifampicin- and TPX2-induced transcription of PXR downstream genes (mRNA levels)” value in data set [4] is “almost blocked the effects of rifampicin and TPX2”.

On to `COc1cc2nccc(Oc3ccc(NC(=O)NC4CC4)c(Cl)c3)c2cc1C(N)=O` [lenvatinib], for which the IC50 stood at 1940 nM in data set [1] (Control); 5730 nM in data set [1] (TPX2 overexpression); 1070 nM in data set [2] (Control, median (95% CI)); 500 nM in data set [2] (siTPX2, median (95% CI)); 1300 nM in data set [3] (setting [6]); 5890 nM in data set [3] (setting [7]). In addition, the IC50 in data set [3] (HepG2, siTPX2, median (95% CI)) came to 330 nM.

As to `CC(=O)O[C@H]1C(=O)[C@@]2(C)[C@H]([C@H](OC(=O)c3ccccc3)[C@]3(O)C[C@H](OC(=O)[C@H](O)[C@@H](NC(=O)c4ccccc4)c4ccccc4)C(C)=C1C3(C)C)[C@]1(OC(C)=O)CO[C@@H]1C[C@@H]2O` [paclitaxel], the IC50 in data set [1] (Control) is 22 nM; in data set [1] (TPX2 overexpression) it was 150 nM; in data set [2] (Control, median (95% CI)), 12.7 nM; in data set [2] (siTPX2, median (95% CI)), 4.2 nM; in data set [3] (setting [6]), 14.8 nM; in data set [3] (setting [7]), 240 nM. Further, the IC50 in data set [3] (HepG2, siTPX2, median (95% CI)) is 8.31 nM.

On to `CNC(=O)c1cc(Oc2ccc(NC(=O)Nc3ccc(Cl)c(C(F)(F)F)c3)c(F)c2)ccn1` [regorafenib], for which the IC50 came to 1500 nM in data set [1] (Control); 4930 nM in data set [1] (TPX2 overexpression); 990 nM in data set [2] (Control, median (95% CI)); 750 nM in data set [2] (siTPX2, median (95% CI)); 1010 nM in data set [3] (setting [6]); 3650 nM in data set [3] (setting [7]). This compound displayed an IC50 in data set [3] (HepG2, siTPX2, median (95% CI)) of 620 nM.

Regarding `CC[C@]1(O)C[C@H]2CN(CCc3c([nH]c4ccccc34)[C@@](C(=O)OC)(c3cc4c(cc3OC)N(C=O)[C@H]3[C@@](O)(C(=O)OC)[C@H](OC(C)=O)[C@]5(CC)C=CCN6CC[C@]43[C@@H]65)C2)C1` [vincristine], in data set [5], the “effect on TPX2/rifampicin-driven PXR recruitment to cyp3a4 promoter or enhancer” value is “almost blocked”.
